Data from patent US7238813B2, “Chemical compounds” (Smithkline Beecham Corporation, priority 2000, dated 2007).
Structures can show the parent of a compound that is named as a salt.

Key:
[1] = target: T1, GST-VEGFR2 (Homo sapiens, UniProt P35968); test: VEGF-R2 enzyme assay (VEGF-E), LANCE method; type: biochemical; details: 75 μM ATP
T1 construct: GST-VEGFR2, baculovirus expressed recombinant constructs of the intracellular domains of human TIE2 tagged by GST; made in house

[2] = tested on: Human umbilical cord endothelial cells (HUVEC); test: VEGF-driven cellular proliferation assay: BrdU incorporation assay (VEGF-C); type: cell-based; design: key to VEGF-C: + = pIC50 of 5.0–6.0; ++ = pIC50 of 6.0–7.0; +++ = pIC50 of > 7.0; − = a negative or inconclusive result; details: for IC50: Homo sapiens
Method in brief: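 HUVEC (≤6 passages) were plated at 5000 cells/well and exposed to compound 30 min in serum-free M199 containing 0.6% DMSO. Medium with 20 ng/ml VEGF was then added for 24 h, followed by a 24 h pulse with 10 μM BrdU and ELISA read at 450 nm. IC50 from nonlinear regression of percent inhibition was expressed as pIC50.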

[3] = target: T2, TIE2 intracellular domain/c-fms extracellular domain (TIE2/c-fms) chimeric protein expressing mouse 3T3 cells (Homo sapiens, UniProt Q02763); test: TIE-2 autophosphorylation assay (TIE2-C), ELISA; type: cell-based; details: TIE2/c-fms 3T3 cells, MCSF activation
T2 construct: a TIE2 intracellular domain/c-fms extracellular domain (TIE2/c-fms) chimeric protein; expressed in transfected cells; host or cells: mouse 3T3 cells
T2 sequence (Q02763 770-1124 limits assumed, change not shown): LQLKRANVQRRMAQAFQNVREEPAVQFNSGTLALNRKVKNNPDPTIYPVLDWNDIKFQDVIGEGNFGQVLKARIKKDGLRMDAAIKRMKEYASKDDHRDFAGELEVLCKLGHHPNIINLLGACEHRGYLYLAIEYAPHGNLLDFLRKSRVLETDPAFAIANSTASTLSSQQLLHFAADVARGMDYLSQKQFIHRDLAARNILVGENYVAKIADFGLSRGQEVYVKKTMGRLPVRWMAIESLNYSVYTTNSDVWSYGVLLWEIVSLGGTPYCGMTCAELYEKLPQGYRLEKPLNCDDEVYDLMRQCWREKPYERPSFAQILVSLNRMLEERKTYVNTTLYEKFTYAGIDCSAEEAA
Method in brief: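 Mouse 3T3 cells expressing TIE2 intracellular/c-fms extracellular chimera treated with compound for 1 hr in serum-free DMEM (0.1% DMSO), then stimulated with MCSF. Lysates captured on anti-c-fms plates overnight at 4 °C; phosphotyrosine detected by biotin-PT66/HRP-streptavidin, OD450. IC50 by nonlinear regression, reported as pIC50.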

[4] = target: T3, GST-TIE2 (intracellular domains of human TIE2) (Homo sapiens, UniProt Q02763); test: TIE-2 enzyme assay (TIE2-E), LANCE method; type: biochemical; details: 80 uM ATP
T3 construct: made in house
T3 sequence (Q02763 762-1104): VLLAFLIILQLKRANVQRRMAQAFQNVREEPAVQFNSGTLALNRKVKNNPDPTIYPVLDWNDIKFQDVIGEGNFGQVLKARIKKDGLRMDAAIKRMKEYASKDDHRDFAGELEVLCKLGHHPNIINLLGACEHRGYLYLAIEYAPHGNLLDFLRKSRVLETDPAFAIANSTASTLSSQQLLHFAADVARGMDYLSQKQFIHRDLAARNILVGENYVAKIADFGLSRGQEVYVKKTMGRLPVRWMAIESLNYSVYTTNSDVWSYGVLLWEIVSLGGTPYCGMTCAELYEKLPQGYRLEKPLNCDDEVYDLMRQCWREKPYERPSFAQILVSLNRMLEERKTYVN
Method in brief: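 Baculovirus GST-TIE2 (human intracellular domain, aa 762–1104) preactivated 30 min at RT with 2 mM ATP, then reacted 30 min at RT with 1 μM D1-15 peptide, 80 uM ATP, 10 mM MgCl2, pH 7.4, 2.4% DMSO. EDTA-stopped; LANCE Eu-anti-pTyr/streptavidin-APC read-out. IC50 by nonlinear regression, reported as pIC50.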

T1 sequence (P35968 786-1356 limits assumed): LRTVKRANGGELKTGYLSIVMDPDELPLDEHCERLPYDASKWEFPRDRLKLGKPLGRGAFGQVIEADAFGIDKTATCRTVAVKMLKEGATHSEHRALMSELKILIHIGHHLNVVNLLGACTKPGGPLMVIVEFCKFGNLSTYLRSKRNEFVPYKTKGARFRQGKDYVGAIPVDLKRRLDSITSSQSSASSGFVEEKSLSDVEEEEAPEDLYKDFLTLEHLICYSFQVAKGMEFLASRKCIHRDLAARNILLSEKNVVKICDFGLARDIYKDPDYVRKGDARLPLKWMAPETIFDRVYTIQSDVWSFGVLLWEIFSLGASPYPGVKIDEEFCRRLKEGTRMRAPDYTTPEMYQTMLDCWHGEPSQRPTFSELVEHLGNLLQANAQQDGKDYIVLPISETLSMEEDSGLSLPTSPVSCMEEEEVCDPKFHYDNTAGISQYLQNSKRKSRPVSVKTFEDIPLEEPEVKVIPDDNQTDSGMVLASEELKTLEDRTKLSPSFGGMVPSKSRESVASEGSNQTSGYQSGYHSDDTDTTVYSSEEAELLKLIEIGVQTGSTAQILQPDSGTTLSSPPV

| Structure (SMILES) | IC50 [1] [µM] | IC50 [2] [µM] | IC50 [3] [µM] | IC50 [4] [µM] | VEGF-C [2] |
| --- | --- | --- | --- | --- | --- |
| COC(=O)Nc1nc2cc(Oc3ccc(NC(=O)Nc4cc(C(F)(F)F)ccc4Cl)cc3)ccc2[nH]1 [Example 43] | < 0.1 | 1 to 10 | < 0.1 | < 0.1 |  |
| COC(=O)Nc1nc2cc(Oc3ccc(NC(=O)Nc4ccc(Cl)c(C(F)(F)F)c4)cc3)ccc2[nH]1 [Example 44, Methyl N-(5-(4-((4-chloro-3-(trifluoromethyl)phenyl)aminocarbonylamino)phenoxy)-1H-benzimidazol-2-yl)carbamate] | < 0.1 |  | 0.1 to 1 | < 0.1 | − |
| COC(=O)Nc1nc2cc(Oc3ccc(NC(=O)Nc4cc(Cl)ccc4Cl)cc3)ccc2[nH]1 [Example 45, Methyl N-(5-(4-((2,5-dichlorophenyl)aminocarbonylamino)phenoxy)-1H-benzimidazol-2-yl)carbamate] | < 0.1 |  | < 0.1 | < 0.1 | − |
| COC(=O)Nc1nc2cc(Oc3ccc(NC(=O)Nc4cc([N+](=O)[O-])ccc4F)cc3)ccc2[nH]1 [Example 46, Methyl N-(5-(4-((2-fluoro-5-nitrophenyl)aminocarbonylamino)phenoxy)-1H-benzimidazol-2-yl)carbamate] | < 0.1 |  | < 0.1 | < 0.1 | − |
| COC(=O)Nc1nc2cc(Oc3ccc(NC(=O)Nc4cc([N+](=O)[O-])ccc4C)cc3)ccc2[nH]1 [Example 47, Methyl N-(5-(4-((2-methyl-5-nitrophenyl)aminocarbonylamino)phenoxy)-1H-benzimidazol-2-yl)carbamate] | < 0.1 |  | < 0.1 | < 0.1 | − |
| COC(=O)Nc1nc2cc(Oc3ccc(NC(=O)Nc4cccc(SC)c4)cc3)ccc2[nH]1 [Example 48] | < 0.1 |  | < 0.1 | < 0.1 | − |
| COC(=O)Nc1nc2cc(Oc3ccc(NC(=O)Nc4cccc(C#N)c4)cc3)ccc2[nH]1 [Example 49] | < 0.1 |  | 0.1 to 1 | 0.1 to 1 | − |
| COC(=O)Nc1nc2cc(Oc3ccc(NC(=O)Nc4cc(F)cc(C(F)(F)F)c4)cc3)ccc2[nH]1 [Example 50, Methyl N-(5-(4-((3-fluoro-5-(trifluoromethyl)phenyl)aminocarbonylamino)phenoxy)-1H-benzimidazol-2-yl)carbamate] | < 0.1 | 0.1 to 1 | < 0.1 | < 0.1 |  |
| COC(=O)Nc1nc2cc(Sc3ccc(NC(=O)Nc4cc(C(F)(F)F)ccc4Cl)cc3)ccc2[nH]1.Cl [Example 51, Methyl N-(5-(4-((2-chloro-5-(trifluoromethyl)phenyl)aminocarbonylamino)phenylthio)-1H-benzimidazol-2-yl)carbamate hydrochloride] | < 0.1 |  | < 0.1 | < 0.1 | − |
| COC(=O)Nc1nc2cc(Oc3ccc(NC(=O)Nc4cc(C)ccc4F)cc3)ccc2[nH]1.Cl [Example 55, Methyl N-(5-(4-((2-fluoro-5-methylphenyl)aminocarbonylamino)phenoxy)-1H-benzimidazol-2-yl)carbamate hydrochloride] | < 0.1 |  | < 0.1 | < 0.1 | − |
| COC(=O)Nc1nc2cc(Oc3ccc(NC(=O)Nc4cc(F)ccc4F)cc3)ccc2[nH]1 [Example 56, Methyl N-(5-(4-((2,5-difluorophenyl)aminocarbonylamino)phenoxy)-1H-benzimidazol-2-yl)carbamate] | < 0.1 |  | < 0.1 | 0.1 to 1 | − |
| COC(=O)Nc1nc2ccc(Oc3ccc(NC(=O)Nc4cc(C(F)(F)F)ccc4F)cc3)cc2s1 [Example 64, Methyl N-(6-(4-((6-fluoro-3-(trifluoromethyl)phenyl)aminocarbonylamino)phenoxy)-benzthiazol-2-yl)carbamate] | < 0.1 | < 0.1 | < 0.1 | < 0.1 |  |
| COC(=O)Nc1cn2cc(Oc3ccc(NC(=O)Nc4cc(C(F)(F)F)ccc4F)cc3)ccc2n1 [Example 68, Methyl N-(5-(4-((2-fluoro-5-(trifluoromethyl)phenyl)aminocarbonylamino)phenoxy)-3a-aza-2-indolyl)carbamate] | < 0.1 | < 0.1 | < 0.1 | < 0.1 |  |
| COC(=O)Nc1nc2nc(Oc3ccc(NC(=O)Nc4cc(C(F)(F)F)ccc4F)cc3)ccc2[nH]1 [Example 69, dihydrochloride] | < 0.1 | 0.1 to 1 | < 0.1 | < 0.1 |  |
| COC(=O)Nc1nc2ccc(Oc3ccc(NC(=O)Nc4cc(C(F)(F)F)ccc4F)cc3)cc2n1CCN(C)C [Example 70, Methyl N-(6-(4-((2-fluoro-5-(trifluoromethyl)phenyl)aminocarbonylamino)phenoxy)-1-(2-(dimethylamino)ethyl)-1H-benzimidazol-2-yl)carbamate] | < 0.1 | 1 to 10 | 0.1 to 1 | < 0.1 |  |
| COC(=O)Nc1nc2ccc(Oc3ccc(NC(=O)Nc4cc(C(F)(F)F)ccc4F)cc3)cc2n1CCN1CCOCC1 [Example 71, Methyl N-(6-(4-((2-fluoro-5-(trifluoromethyl)phenyl)aminocarbonylamino)phenoxy)-1-(2-(4-morpholino)ethyl)-1H-benzimidazol-2-yl)carbamate] | < 0.1 | 1 to 10 | 0.1 to 1 | < 0.1 |  |
| COC(=O)Nc1nc2ccc(Oc3ccc(NC(=O)Nc4cc(C(F)(F)F)ccc4Cl)cc3)nc2[nH]1 [Example 72, Methyl N-(5-(4-((2-chloro-5-(trifluoromethyl)phenyl)aminocarbonylamino)phenoxy)-3,4-diaza-1H-indole-2-yl)carbamate dihydrochloride] | < 0.1 | 1 to 10 | < 0.1 | < 0.1 |  |
| COC(=O)Nc1nc2ccc(Oc3ccc(NC(=O)Nc4cc(Cl)ccc4Cl)cc3)nc2[nH]1.Cl [Example 74, Methyl N-(5-(4-((2,5-dichlorophenyl)aminocarbonylamino)phenoxy)-3,4-diaza-1H-indole-2-yl)carbamate dihydrochloride] | < 0.1 |  | < 0.1 | < 0.1 | − |
| O=C1CCn2c(nc3ccc(Oc4ccc(NC(=O)Nc5cc(C(F)(F)F)ccc5F)cc4)nc32)N1 [Example 77] | < 0.1 | 0.1 to 1 | < 0.1 | < 0.1 |  |
| CN(C)CCOC(=O)Nc1nc2cc(Oc3ccc(NC(=O)Nc4cc(C(F)(F)F)ccc4F)cc3)ccc2[nH]1 [Example 80, 2-(Dimethylamino)ethyl N-(5-(4-((2-fluoro-5-(trifluoromethyl)phenyl)aminocarbonylamino)phenoxy)-1H-benzimidazol-2-yl)carbamate] | < 0.1 | < 0.1 | < 0.1 | < 0.1 |  |
| O=C(Nc1ccc(Oc2ccc3[nH]c(NC(=O)OCc4ccccc4)nc3c2)cc1)Nc1cc(C(F)(F)F)ccc1F [Example 81, Benzyl N-(5-(4-((2-fluoro-5-(trifluoromethyl)phenyl)aminocarbonylamino)phenoxy)-1H-benzimidazol-2-yl)carbamate] | < 0.1 |  | < 0.1 | < 0.1 | − |
| CN1CCN(Cc2ccc(C(=O)Nc3nc4cc(Oc5ccc(NC(=O)Nc6cc(C(F)(F)F)ccc6F)cc5)ccc4[nH]3)cc2)CC1 [Example 87, N-(5-(4-((2-Fluoro-5-(trifluoromethyl)phenyl)aminocarbonylamino)phenoxy)-1H-benzimidazol-2-yl)-4-(4-methyl-1-piperazinomethyl)benzamide] | < 0.1 | 0.1 to 1 | < 0.1 | < 0.1 |  |
| O=C(CCc1cccnc1)Nc1nc2cc(Oc3ccc(NC(=O)Nc4cc(C(F)(F)F)ccc4F)cc3)ccc2[nH]1 [Example 88, N-(5-(4-((2-Fluoro-5-(trifluoromethyl)phenyl)aminocarbonylamino)phenoxy)-1H-benzimidazol-2-yl)-3-(pyridine-3-yl)propionamide] | < 0.1 | < 0.1 | < 0.1 | < 0.1 |  |
| O=C(Nc1ccc(Oc2ccc3[nH]c(NC(=O)c4ccc5[nH]cnc5c4)nc3c2)cc1)Nc1cc(C(F)(F)F)ccc1F [Example 89, N-(5-(4-((2-Fluoro-5-(trifluoromethyl)phenyl)aminocarbonylamino)phenoxy)-1H-benzimidazol-2-yl)-5-benzimidazolecarboxamide] | < 0.1 | 0.1 to 1 | < 0.1 | < 0.1 |  |
